The values below come from patent US20230201192A1, “METHODS AND MATERIALS FOR ASSESSING AND TREATING CANCER” (Mayo Foundation for Medical Education and Research, priority 2020, published 2023).

The subject of assay [1] is Unsaturated fatty acids (UFAs). The experiment in a line: Unsaturated fatty acids measured in media of cells. Type of assay: cell-based. The following applies: SSI-4 sensitive cells, 1 μM SSI-4.
In assay [2] the test system is SSI-4 sensitive HCC cells. The experiment in a line: Soft agar colony formation. It is filed as cell-based. The following applies: 1 micromolar SSI-4. The protocol: Soft agar cultures were prepared by diluting 2× growth medium 1:1 in 1.5% SeaplaqueGTG agarose (Lonza), with 500 cells/plate in 60-mm culture dishes (Genesee Scientific). Colonies were stained with Giemsa (LabChem Inc.) and counted after 3 weeks.
In FIG. 3A, cells representative of HCC (top row), RCC (middle row) and MM (bottom row) are shown. In FIG. 3B, sensitive HCC cells are treated with 1 micromolar SSI-4 showing inhibition of colony formation (i.e. growth). In FIG. 3C, colonies are quantitated comparing control to SSI-4 treated cells. […] Each treatment group was repeated in triplicate. Colony number is the mean+/−standard deviation (S.D.). Thus, soft agar assay can independently predict response to SCD1 inhibitor but requires fresh live tumor tissue and laboratories such as the Copland laboratory that can access tissues, process tissues and perform the assays.

For assay [3], the system named is BIP, cleaved PARP, cleaved caspase 3, c-Myc, cyclin D1, survivin. Briefly: Western blot analysis of ER stress, apoptosis and c-Myc signaling. It is filed as cell-based. The protocol: HCC, RCC, CCA, and MM cell lines (2000 cells/well) were incubated with DMSO control (1:1000), 500 ug/ml bovine serum albumin-oleic acid (BSA-OA) and/or 1 μM SSI-4 for three days and determined for cell viability (FIG. 4A). Nonresponsive cell lines are closed triangle and responsive are open triangles. […] Specificity for blockade of SCD1 is shown by rescue with the enzyme end product, oleic acid (OA).
Western blot analysis: Cell protein extracts were prepared using RIPA lysis buffer containing 50 mmol/L Tris, 5 mmol/L EDTA, 150 mmol/L NaCl, 0.1% SDS, 0.5% deoxycholate, 1% NP40, protease inhibitor cocktail, and phosphatase inhibitor. Tissue protein extracts were prepared from frozen samples using 1% SDS in 50 mmol/L pH 8.0 Tris buffer containing protease inhibitor cocktail and phosphatase inhibitor with brief sonication on ice. Electrophoresis, transfer, blocking, and antibody preparations were performed. The following primary antibodies were included: SCD1, c-Myc, pSrc Y418, Src, b-actin, PARP, cleaved caspase 3, survivin, cyclin D1. Secondary species-specific horseradish peroxidase-labeled antibodies were applied, and Supersignal Chemiluminescent Kit was used to perform detection.
In FIG. 6, c-Myc protein expression correlates with SCD1 sensitive cell lines. SCD1 protein is expressed in most cancer cells (HCC and ccRCC) while c-Myc protein expression appears to be expressed in SSI-4 sensitive cells.

Assay [4] has as its system endoplasmic reticulum (ER) stress induced proteins. Briefly: mRNA expression of ER stress induced proteins by qPCR. Type of assay: cell-based. Particulars: sensitive cells, 1 μM SSI-4 for 48 hours, fold change to untreated cells.
The test system of assay [5] is c-Myc silenced SSI-4 responsive cells / c-Myc overexpressing nonresponsive cells. The experiment in a line: Cell viability after c-Myc silencing (shRNA) or c-Myc overexpression. It is filed as cell-based. The protocol:
c-Myc gene silencing (shRNA) and c-Myc over-expression: Lentivirus shRNA pLKO.1 constructs were used to make self-inactivating shRNA lentiviruses for human c-Myc and a nontarget random scrambled sequence control. Transfection reagents Lipofectamine 2000 and ViraPower were used to generate lentiviruses using HEK293FT viral progenitor cells. Cells were incubated with lentivirus plus […] polybrene for 24 hours before clonal selection with puromycin.
In FIG. 8, overexpression of c-Myc in nonresponsive SSI-4 cells convert cells to SSI-4 sensitive (growth inhibited) cells. c-Myc mRNA expression is ˜2-fold elevated in cells infected with a c-Myc expression plasmid (FIG. 8A).

Assay [6] concerns PDX tumor models for RCC, HCC, melanoma and CCA. The experiment in a line: PDTX tumor models in Nod Scid gamma mice. It is filed as in vivo, NSG mice. Particulars: oral, 180 parts per million in chow=10 mg/kg daily; treatment from ~75 mm^3; models predicted responsive by IHC. The protocol: Animal models and drug testing: PDTX tumors (5×5×5-mm) were implanted into Nod Scid gamma mice with treatment (vehicle control or oral SSI-4) begun when tumors were approximately ˜75-100 mm^3. Tumor volume, food consumption and body weight were monitored twice weekly. Tumor tissue was collected and processes for IHC.
In FIG. 10, PDTX tumor models for HCC, ccRCC, CCA, and melanoma respond to SSI-4 or not correlate with predictions shown in FIG. 10. PDTX tumors were grown in the right flank of Nod Scid Gamma (NSG) mice with treatment beginning when tumors reach ˜75 mm^3 with the start of SSI-4 oral treatment. Tumor tissues were formalin fixed and paraffin block slides were stained for SCD1, c-Myc, LDHA, p-Src by standard IHC protocols for protein expression. PDTX models tested include RCC, HCC, melanoma, and CCA. * indicates statistical difference of SSI-4 from same day treatment control (P<0.05). Number in red predicts no response to SSI-4 (SCD1 inhibitor). […] Cells resistant to SSI-4 may have low or no cMyc and no or low LDHA with elevated p-Src. Cell with elevated cMyc and LDHA and low p-Src are responsive to SSI-4 or SCD1 inhibition.

For assay [7], the system named is hepatocellular carcinoma (HCC), cholangiocarcinoma (CCA), clear cell renal cell carcinoma (ccRCC) and melanoma (MM) cell lines. The experiment in a line: Cell proliferation / viability assay (CyQuant or Coulter count), SSI-4 dose response. It is filed as cell-based. The following applies: responsive cell lines; 1 μM SSI-4 + 500 ug/ml BSA-OA, three days. The method, then: (§1) Cells were seeded at 5,000 cells/well in clear-bottom 96-well plates in triplicate. Drug treatment was applied at 1:1000 in reduced serum conditions (3%). After 72 hours, cells were washed with PBS, and stored at −80° C. prior to analysis using CyQuant® Proliferation Analysis Kit (Invitrogen) per manufacturers' protocol for relative fluorescence units. Alternatively, cells were plated 2×10^5/ well in 12-well plates (Genesee Scientific) in triplicate prior to drug treatment. After 120-hour treatment, cell number was established using a Coulter Particle Counter (Beckman). Oleic acid-albumin (Sigma Aldrich) was added to media at 5 μM, and was applied adjuvant to drug treatment. Drug stocks were prepared in DMSO (Sigma) at 1000×. IC50 dosing per cell line was calculated as described elsewhere (von Roemeling et al., Oncotarget, 9:3-20 (2018)).
(§2) SCD1 expression was examined in cell lines. Cells were treated with 1 μM SSI-4 for 3 days and a viability assay was used to identify SSI-4 sensitive and insensitive cell lines. Certain cell lines were also treated with varied doses (0.01-10,000 nM) of SSI-4 for 3 days. Not all cells that express SCD1 are sensitive to a SCD1 inhibitor (FIG. 1 and FIG. 2).

Experiment in assay [8]: as above
Type of assay: cell-based. The following applies: 72 h; responsive HCC, CCA, ccRCC and MM cell lines; dose response 0.01-10,000 nM, 3 day exposure. The protocol:
as §1, §2

As a reminder, the inhibition is the relative decrease from the control value, in per cent. What is called IC50 is the concentration at which inhibition is half-maximal. `CNC(=O)c1ccnc(NC(=O)N2CCC(Oc3ccccc3Cl)CC2)c1` [SSI-4, 2-{[4-(2-Chlorophenoxy)piperidine-1-carbonyl]amino}-N-methylpyridine-4-carboxamide]: the “unsaturated fatty acids (UFAs)” value in assay [1] was “suppressed UFAs to levels equal to non-responsive cells”. The “colony formation on soft agar” value in assay [2] is on record as “blocked colony formation”. Besides, the “c-Myc and c-Myc regulated genes (cyclin D1 and survivin) protein expression” value in assay [3] (1 μM SSI-4, restored by oleic acid BSA) was “down-regulated”. Also, in assay [3] (HCC cell lines), the “ER stress (BIP protein, Western)” value is recorded as “upregulation of BIP protein”; the “apoptosis (cleaved PARP and cleaved caspase 3, Western)” value is given as “Apoptotic cell death is induced”. For the same molecule, the “cMyc protein (Western)” value in assay [3] (HCC cell lines, rescue by OA) is recorded as “down-regulates cMyc protein”. For the same molecule, the “mRNA expression for ER stress induced proteins” value in assay [4] is recorded as “became elevated”. In assay [5] (SSI-4 responsive cells with c-Myc shRNA), the “sensitivity of cells silenced for c-Myc to SSI-4 treatment” value was “become insensitive”. Moreover, the inhibition at 1 µM in assay [5] (c-Myc expressing (previously nonresponsive) cells, 1 uM SSI-4, read-out: enhanced growth inhibition) lay in the range of 33 to 45%. The “tumor response (tumor volume)” value in assay [6] was “respond”. Further, the “rescue of SSI-4 inhibition of cell proliferation by oleic acid (BSA-OA)” value in assay [7] is reported as “complete rescue”. Also, the half-inhibitory concentration (IC50) in assay [8] is 0.001 to 0.04 µM.
